Laboratory results taken from PubChem BioAssay (NCI).
“And” between values parts separate entries of the source, which are not always exact repeats. Equal values may be shown once.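 In this assay, cells in 96-well plates receive the compound at five concentrations for 48 hours. Endpoints are linearly interpolated between the surrounding concentrations. The concentration for 50% growth inhibition is given as GI50. TGI is the concentration that stops growth completely.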

Experiments:
Experiment in all cases: inhibition of tumour cell growth, NCI panel, 48 h
[1] = tested on: COLO 205 colon
[2] = tested on: SK-MEL-5 melanoma
[3] = tested on: SF-268 CNS
[4] = tested on: CCRF-CEM leukemia
[5] = tested on: PC-3 prostate
[6] = tested on: DU-145 prostate
[7] = tested on: A549 NSCLC
[8] = tested on: NCI/ADR-RES ovarian
[9] = tested on: DLD-1 colon
[10] = tested on: SNB-78 CNS

SMILES	GI50 [1]	TGI [1] [µM]	GI50 [2]	TGI [2] [µM]	GI50 [3]	TGI [3] [µM]	GI50 [4]	TGI [4] [µM]	GI50 [5] [nM]	TGI [5] [µM]	GI50 [6]	TGI [6] [µM]	GI50 [7]	TGI [7] [µM]	GI50 [8]	TGI [8] [µM]	TGI [9] [µM]	TGI [10] [µM]
COc1ccccc1N1CCN(CCc2c[nH]c3cc4c(cc23)OCO4)CC1	15300 nM	34.7	13200 nM	26.2	35600 nM	> 100	29800 nM	> 100	20000	> 100	28900 nM	> 100	31 µM	> 100	26400 nM	> 100		
Oc1[nH]c2c(Br)cccc2c1C1=Nc2ccccc2/C1=N/OCCN1CCCC1	524 nM	4.81	1060 nM and 751 nM		813 nM		741 nM and 1120 nM		824		688 nM	4.31	1.91 µM		793 nM and 766 nM			
COc1cc(/C=N/NC(=O)c2cnn3c2NC(c2ccccc2)C3)ccc1Oc1ccccc1 (centres undefined)	819 nM	6.97	734 nM	3.94	2460 nM	14.6	1430 nM	> 100	875	3.59	1420 nM	4.84	1.5 µM	5	1730 nM	9.59		
COc1cc(C(O)C(=O)c2nc3ccc([N+](=O)[O-])cc3[nH]c2=O)ccc1O (centres undefined)		> 100		> 100		> 100		> 100						> 100			> 100	> 100
O=C(c1ccccc1)[C@@H]1C[C@H](Sc2ccccc2)c2cc(Cl)ccc2N1		> 100		26.9		48.4								> 100			> 100	> 100
COc1ccc(NC(=O)COCCOCCNC[C@@H]2C(=O)O[C@H]3[C@H]2CC/C(COC(=O)OC/C2=C/CC[C@@]4(C)O[C@H]4[C@H]4OC(=O)[C@@H](CN(C)C)[C@@H]4CC2)=C\CC[C@@]2(C)O[C@@H]32)c(O)c1C(N)=O	1060 nM	2.52	8790 nM	17.3	8700 nM	18.7	1210 nM	3.27	11100	26.9	7210 nM	13.7	31.8 µM	> 50	> 50000 nM	> 50		
COc1cccc(OCCCN)c1-c1cc(Nc2cnc(C#N)cn2)n[nH]1	41.9 nM and 67.7 nM	11.2	31.8 nM and 22.4 nM	1.59	87.1 nM and 75.4 nM	13.2		> 73	2410	21.5	7.69 nM and 13.1 nM	15.4	0.035 µM and 0.0452 µM	15.1	71 nM and 54 nM	17.3		
Cc1ccc([N+](=O)[O-])cc1NC(=O)c1cccc([N+](=O)[O-])c1O		32.2		28.7		83.9		83.7						> 100			> 100	80.7
Cc1cc(Cc2cc(C)cc(C(C)(C)C)c2O)c(O)c(Cc2cc(C)cc(C(C)(C)C)c2O)c1		9.17		2.62		9.92		8.31		9.12		13.7		11.3		12.6		
C/C=C1/CCC2c3[nH]c4ccccc4c3CCN2C1 (centres undefined)				> 100		> 100		> 100						> 100			> 100	> 100
Cc1cc(=O)[nH]c2cc3c(c4c(n3Cc3ccc(Cl)cc3Cl)CC(C)(C)CC4=O)c(O)c12	> 100000 nM	> 100	16300 nM	31.8	76100 nM	> 100	82300 nM	> 100	> 100000	> 100	46200 nM	> 100	46.3 µM	> 100	> 100000 nM	> 100		
Cc1cc(NCc2cc(Nc3ccnc4cc(Cl)ccc34)ccc2F)nc(N2CCN(C)CC2)n1	1720 nM	3.66	1690 nM	3.07	1810 nM	4.53	1120 nM	7.6	1920	7.97	2630 nM	11.4	3.07 µM	10.9	2360 nM	7.72		
CCCC/C=C1\CCC(C)(CN(C)C)C1=O (centres undefined)				> 100		> 100		> 100						> 100				> 100
Cc1cc2[nH]c(=O)c3c4ccccc4cn3c2cc1C	15200 nM	40	13600 nM	29.6	15300 nM	32.4	9920 nM	31.2	12000	25.4	13900 nM	30.1	14.8 µM	37.7	13600 nM	31.7		
CN(C)CC1C(=O)O[C@H]2[C@H]1CC/C(COC(=O)c1cc3ccccc3[nH]1)=C\CC[C@@]1(C)O[C@@H]21 (some centres undefined)	2160 nM	5.5	1840 nM	3.57	1650 nM	3.43	432 nM	15.9	2140	5.86	2010 nM	6.17	4.62 µM	14.3	1760 nM	4.6		
COC(=O)[C@]12CC=C3O[C@@H]4OC5(CCCCC5)O[C@@H]4C3[C@@H]1C(=O)CCC2=O (some centres undefined)		> 100		> 100		> 100		> 100						> 100			> 100	> 100
COc1cc(Cl)cc(-c2nn(-c3cccc(NC(=O)Nc4cc(C(F)(F)F)cc(C(F)(F)F)c4)c3)cc2-c2ccncc2)c1	528 nM	1.97	1090 nM	2.33	645 nM	4.35	312 nM	1.52	311	1.62	530 nM	12.4	0.386 µM	5.62	778 nM	9.66		
